The values below come from US20020045268A1, “MEASURING ANALYTES WITH METAL-LIGAND COMPLEX PROBES” (priority 1997, published 2002).

Type in all cases: physicochemical
Series [1] is described as follows: pH-dependent fluorescence emission spectra and intensities in buffers. How it is done: (§1) Ru(bpy)2 (deabpy) (PF6)2 solutions at different pH value were prepared by dissolving equal amount of aqueous Ru(bpy)2 (deabpy) (PF6)2 in different buffer solutions. From pH 2 to pH 4.7, we used citrate buffer; from pH 4.8 to pH 6.3 we used acetate buffer; from pH 6.4 to pH 7.8 we used phosphate buffer; from pH 7.8 to pH 9.0 we used tris buffer, from pH 9.2 to pH 11 we used carbonate/bicarbonate buffer, from pH 11 to pH 12 we used dibasic sodium phosphate/sodium hydroxide buffer. Unless stated otherwise the buffer concentrations were 20 mM and contained 0.1 M potassium chloride to maintain ionic strength.
The fluorescence emission spectra were measured using Aminco Bowman Series AB2 Luminescence Spectrometer with the excitation wavelength of 414 nm. […] The emission intensity ratios (620 nm/650 nm) of the different sample were also recorded.

Series [2] can be described thus: pH-dependent absorption at 450 nm (ground state pKa). The following applies: from changes in absorption at 450 nm. How it is done: Chemicals and solvents were purchased from Aldrich and used without further purification. Absorption spectra were measured using a Perkin Elmer lambda 6 UV/Vis spectrophotometer. Observed were two isosbestic points at 414 nm and 475 nm. The absorbance at 450 nm of different samples were measured to obtain the ground state pKa.
as §1

The nature of series [3]: frequency-domain intensity decay (lifetime) measurements, single and global multi-exponential analysis. From the text:
For the phase/modulation measurements (FIGS. 6-9), an air-cooled Argon ion laser (output at 488 nm) was used as the excitation light source, and the modulation frequency was set at 700 kHz. On the emission side, a long-wave pass filter was used to collect the fluorescence with wavelength longer than 600 nm. The reference solution used here was an aqueous solution of Texas Red with a reference lifetime of 4 ns. For the lifetime measurements, we used the same instrumentation and reference solution, and 23 different modulation frequencies ranging from 11 kHz to 2 MHZ.
Single and multi-exponential intensity decays were recovered from the multi-frequency data as described previously [see, Construction and Performance of a Variable-Frequency Phase-Modulation Fluorometer (1985). Lakowicz, J. R. and B. P. Maliwal. Biophys. Chem., 21:61-78; Frequency-Domain Fluorescence Spectroscopy (1991) in Topics in Fluorescence Spectroscopy, Vol. 1: Techniques, (Lakowicz, J. R., Ed.). Plenum Press, New York, pp. 293-355]. The data were analyzed globally in terms of the multi-exponential model [formula]
where Ik(t) are the intensity decays at each pH (k) value, Ti are the decay times and αik are the amplitudes. For the global analysis we assumed that the αik values would depend on pH, but that the two lifetimes would be independent of pH. The goodness-of-fit was judged by the usual XR^2 criterion with assumed uncertainties in phase δp=0.2° and modulation δm=0.005.

Series [4] can be described thus: pH-dependent intensity, phase and modulation data of FIG. 15 and emission spectrum of the dcbpy complex. The following applies: relative to Ru(bpy)3. From the text:
FIG. 15 graphically depicts data in connection with the metal-ligand complex [Ru(bpy)2 (dcbpy)]Cl4 showing pH-dependent intensity, phase and modulation data.
The emission shift to longer wavelengths at low pH (FIG. 2) seems to be generally understandable in terms of the electronic properties of the excited MLCs. The long wavelength emission is thought to result from a metal-to-ligand charge transfer (MLCT) state in which an electron is donated from Ru to the ligand. The protonated form of deabpy is probably a better electron acceptor, lowering the energy of the MLCT state, shifting the emission to longer wavelengths and thereby decreasing the lifetime. […] Terpetschnig, E., H. Szmacinski, H. Malak and J. R. Lakowicz. Biophys. J., 68:342-350; Fluorescence Polarization Immunoassay of a High Molecular Weight Antigen Based on a Long-Lifetime Ru-Ligand Complex (1995). Terpetschnig, E., H. Szmacinski and J. R. Lakowicz. Anal. Biochem., 227:140-147].
The dcbpy ligand is probably a better electron acceptor than bpy. […] It could be used at a pH in the range of pH 2 to 5.

Each structure is given as a SMILES string. “Also recorded” adds a separate entry of the source.

In the case of `CCN(CC)Cc1ccnc(-c2cc(CN(CC)CC)ccn2)c1.[Ru+2].c1ccc(-c2ccccn2)nc1.c1ccc(-c2ccccn2)nc1` [[Ru(deabpy)(bpy)2]^2+], the “dependence of apparent pKa on ionic strength / buffer concentration” value in series [1] (20, 50 and 100 mM phosphate buffer) is “not found to be dependent on ionic strength; also recorded: same apparent pKa values”. The emission maximum in series [1] (acidic sample (low pH), excitation 414 nm) stood at 650 nm; in series [1] (basic sample, excitation 414 nm) it was 620 nm. Besides, the “increase of emission spectrum” value in series [1] (as pH increases from 2.52 to 11.8) is on record as “about 3 fold”. For the same compound, the “apparent pKa observed by fluorescence” value in series [1] (pH-dependent fluorescence intensities, excitation 414 nm) was ~7.5. In addition, in series [2], the “ground state pKa” value is on record as 7.14. For the same compound, the mean decay time is given as ~390 ns in series [3] (high pH) and ~240 ns in series [3] (low pH, protonated amino groups). Besides, the “α1, amplitude of 235 ns component, global analysis” value in series [3] (pH 2.4) worked out at 0.964; in series [3] (pH 5.8) it was 0.893; in series [3] (pH 6.91), 0.828; in series [3] (pH 7.45), 0.687; in series [3] (pH 8.02) it was 0.380; in series [3] (pH 13.5), 0. The “α2, amplitude of 380 ns component, global analysis” value was 0.036 in series [3] (pH 2.4); 0.107 in series [3] (pH 5.8); 0.172 in series [3] (pH 6.91); 0.313 in series [3] (pH 7.45); 0.620 in series [3] (pH 8.02); 1.0 in series [3] (pH 13.5). The “τ2 (ns), global analysis” value in series [3] (pH 2.4), in series [3] (pH 5.8), in series [3] (pH 6.91), in series [3] (pH 7.45), in series [3] (pH 8.02) and in series [3] (pH 13.5) was 380 ns in each case. In addition, the “τi (ns), global analysis” value in series [3] (pH 2.4), in series [3] (pH 5.8), in series [3] (pH 6.91), in series [3] (pH 7.45), in series [3] (pH 8.02) and in series [3] (pH 13.5) was 235 ns each time. Further, the “τ(ns), single decay time analysis” value in series [3] (pH 2.40) was 236 ns; in series [3] (pH 5.89), 252 ns; in series [3] (pH 6.91) it was 262 ns; in series [3] (pH 7.45) it was 284 ns; in series [3] (pH 8.02), 327 ns; in series [3] (pH 13.5), 392 ns. The figures for the “decay time, global analysis” value in series [3] (protonated form) and in series [3] (unprotonated form) were 235 ns and 380 ns, respectively.

As for `O=C(O)c1ccnc(-c2cc(C(=O)O)ccn2)c1.[Ru+2].c1ccc(-c2ccccn2)nc1.c1ccc(-c2ccccn2)nc1` [[Ru(dcbpy)(bpy)2]^2+], the emission spectrum shift result in series [4] is “red shift”.
